Data set [1] has as its target Beta-2 adrenergic receptor (Homo sapiens) (UniProt P07550). Briefly: BETA2/HUM Eurofins SafetyScreen44 (BI). Conditions: filed as antagonist, Compound concentration 10.0 uM.
Data set [2] deals with Sodium-dependent noradrenaline transporter (Homo sapiens) (UniProt P23975). Description: NEUP/H Eurofins SafetyScreen44 (BI). Conditions: Compound concentration 10.0 uM.
Data set [3] deals with Adenosine receptor A2a (Homo sapiens) (UniProt P29274). Briefly: A2A/H Eurofins SafetyScreen44 (BI). The conditions noted are these: filed as antagonist, Compound concentration 10.0 uM.
For data set [4], the target named is Sodium-dependent dopamine transporter (Homo sapiens) (UniProt Q01959). Description: DATRANS/HUM Eurofins SafetyScreen44 (BI). Conditions: Compound concentration 10.0 uM.
Chain of Sodium-dependent dopamine transporter (Homo sapiens) (Q01959 whole entry): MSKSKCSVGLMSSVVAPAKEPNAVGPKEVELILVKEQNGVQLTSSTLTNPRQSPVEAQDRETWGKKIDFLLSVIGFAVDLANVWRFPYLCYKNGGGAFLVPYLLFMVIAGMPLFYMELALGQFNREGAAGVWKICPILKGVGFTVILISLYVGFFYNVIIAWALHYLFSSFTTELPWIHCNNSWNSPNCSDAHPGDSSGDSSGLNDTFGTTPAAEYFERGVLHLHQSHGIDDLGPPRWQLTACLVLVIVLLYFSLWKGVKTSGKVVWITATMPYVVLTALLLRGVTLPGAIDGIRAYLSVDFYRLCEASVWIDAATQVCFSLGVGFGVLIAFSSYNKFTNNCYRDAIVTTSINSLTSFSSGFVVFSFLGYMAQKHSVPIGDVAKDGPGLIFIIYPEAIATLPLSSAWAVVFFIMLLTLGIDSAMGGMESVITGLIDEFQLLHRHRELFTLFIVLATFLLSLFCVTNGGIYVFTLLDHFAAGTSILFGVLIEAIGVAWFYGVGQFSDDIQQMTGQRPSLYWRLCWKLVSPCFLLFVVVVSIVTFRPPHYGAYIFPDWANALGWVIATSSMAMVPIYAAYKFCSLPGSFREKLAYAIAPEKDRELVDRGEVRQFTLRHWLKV
For data set [5], the target named is voltage-gated potassium channel (IKs; KCNQ1/KCNE1 as curated) (Rattus norvegicus, UniProt P15383+Q9Z0N7). Briefly: K+/VOLT/RA Eurofins SafetyScreen44 (BI). It is filed as protein-complex assay. Conditions: compound concentration 10 uM, read-out: % Ctrl.
For data set [6], the target named is Glucocorticoid receptor (Homo sapiens) (UniProt P04150). Description: GCORTICOID/H Eurofins SafetyScreen44 (BI). Conditions: Compound concentration 10.0 uM.
Chain of Glucocorticoid receptor (Homo sapiens) (P04150 whole entry): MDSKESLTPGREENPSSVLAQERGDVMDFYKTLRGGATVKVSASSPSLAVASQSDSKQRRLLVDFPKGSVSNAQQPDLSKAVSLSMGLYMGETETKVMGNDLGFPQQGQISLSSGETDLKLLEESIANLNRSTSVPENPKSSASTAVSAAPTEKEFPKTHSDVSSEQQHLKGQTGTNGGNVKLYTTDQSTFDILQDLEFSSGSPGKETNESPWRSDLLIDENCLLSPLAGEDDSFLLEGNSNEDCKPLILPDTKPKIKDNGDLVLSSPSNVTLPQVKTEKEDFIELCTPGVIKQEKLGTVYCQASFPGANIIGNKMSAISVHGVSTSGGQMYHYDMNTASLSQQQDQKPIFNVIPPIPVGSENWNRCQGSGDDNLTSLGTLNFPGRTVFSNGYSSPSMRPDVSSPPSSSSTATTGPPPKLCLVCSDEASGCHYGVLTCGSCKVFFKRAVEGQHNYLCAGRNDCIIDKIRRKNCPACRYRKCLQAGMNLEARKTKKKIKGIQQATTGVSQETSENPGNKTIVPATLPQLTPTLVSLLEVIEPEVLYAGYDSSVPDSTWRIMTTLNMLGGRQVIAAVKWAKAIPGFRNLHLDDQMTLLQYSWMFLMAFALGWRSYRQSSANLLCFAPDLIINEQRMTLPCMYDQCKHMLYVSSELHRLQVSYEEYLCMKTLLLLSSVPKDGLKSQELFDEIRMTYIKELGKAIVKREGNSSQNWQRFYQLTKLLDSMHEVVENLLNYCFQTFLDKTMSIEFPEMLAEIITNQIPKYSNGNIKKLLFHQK
The target of data set [7] is Cannabinoid receptor 2 (Homo sapiens) (UniProt P34972). Description: CB2/PERIPH/H Eurofins SafetyScreen44 (BI). Conditions: Compound concentration 10.0 uM.
Data set [8] concerns the target Amiloride-sensitive sodium channel, ENaC (Homo sapiens, UniProt P37088+P51168+P51170). Briefly: Inhibition of Na+ current by Ussing Chamber. It is filed as functional, tissue-based, epithelium.
Data set [9] has as its target L-type calcium channel alpha-1C (dihydropyridine site) (Rattus norvegicus, UniProt P22002). Description: CA+/DHPSI/R Eurofins SafetyScreen44 (BI). Conditions: compound concentration 10 uM, read-out: % Ctrl.
For data set [10], the target named is T1, Muscarinic acetylcholine receptor M1 (Homo sapiens) (UniProt P11229).
T1 sequence (whole entry): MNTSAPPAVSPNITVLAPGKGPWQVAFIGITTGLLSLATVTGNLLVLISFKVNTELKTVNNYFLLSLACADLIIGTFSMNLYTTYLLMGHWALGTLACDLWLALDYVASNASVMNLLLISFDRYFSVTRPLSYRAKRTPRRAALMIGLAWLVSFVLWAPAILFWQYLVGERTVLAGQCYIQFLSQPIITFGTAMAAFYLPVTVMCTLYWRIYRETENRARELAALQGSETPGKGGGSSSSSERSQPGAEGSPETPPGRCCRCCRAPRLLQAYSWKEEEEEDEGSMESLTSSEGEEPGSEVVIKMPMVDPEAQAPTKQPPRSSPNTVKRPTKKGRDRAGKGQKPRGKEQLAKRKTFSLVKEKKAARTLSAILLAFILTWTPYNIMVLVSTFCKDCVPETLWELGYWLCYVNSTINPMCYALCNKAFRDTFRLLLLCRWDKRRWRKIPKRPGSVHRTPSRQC
Description: M1/H Eurofins SafetyScreen44 (BI). Conditions: Compound concentration 10.0 uM.

The next data set addresses hERG (KCNH2) (Homo sapiens, UniProt Q12809). Description: HERG_DOFETILIDE Eurofins SafetyScreen44 (BI). The conditions noted are these: probe dofetilide, compound concentration 10 uM, read-out: % Ctrl.
In data set [11] the target is Endothelin-1 receptor (Homo sapiens) (UniProt P25101). Briefly: ETA/H Eurofins SafetyScreen44 (BI). The conditions noted are these: Compound concentration 10.0 uM.
For data set [12], the target named is voltage-gated sodium channel (site 2) (Rattus norvegicus, UniProt F1LQQ7+O08562+O88420+O88457+P04774+P04775+P08104+P15389+P15390+Q62968). Briefly: NA+/SITE2/R Eurofins SafetyScreen44 (BI). It is filed as protein assay. The conditions noted are these: compound concentration 10 uM, read-out: % Ctrl.
The target of data set [13] is cGMP-inhibited 3',5'-cyclic phosphodiesterase 3A (Homo sapiens) (UniProt Q14432). Description: PDE3A Eurofins SafetyScreen44 (BI). The conditions noted are these: Compound concentration 10.0 uM.
Chain of cGMP-inhibited 3',5'-cyclic phosphodiesterase 3A (Homo sapiens) (Q14432 whole entry): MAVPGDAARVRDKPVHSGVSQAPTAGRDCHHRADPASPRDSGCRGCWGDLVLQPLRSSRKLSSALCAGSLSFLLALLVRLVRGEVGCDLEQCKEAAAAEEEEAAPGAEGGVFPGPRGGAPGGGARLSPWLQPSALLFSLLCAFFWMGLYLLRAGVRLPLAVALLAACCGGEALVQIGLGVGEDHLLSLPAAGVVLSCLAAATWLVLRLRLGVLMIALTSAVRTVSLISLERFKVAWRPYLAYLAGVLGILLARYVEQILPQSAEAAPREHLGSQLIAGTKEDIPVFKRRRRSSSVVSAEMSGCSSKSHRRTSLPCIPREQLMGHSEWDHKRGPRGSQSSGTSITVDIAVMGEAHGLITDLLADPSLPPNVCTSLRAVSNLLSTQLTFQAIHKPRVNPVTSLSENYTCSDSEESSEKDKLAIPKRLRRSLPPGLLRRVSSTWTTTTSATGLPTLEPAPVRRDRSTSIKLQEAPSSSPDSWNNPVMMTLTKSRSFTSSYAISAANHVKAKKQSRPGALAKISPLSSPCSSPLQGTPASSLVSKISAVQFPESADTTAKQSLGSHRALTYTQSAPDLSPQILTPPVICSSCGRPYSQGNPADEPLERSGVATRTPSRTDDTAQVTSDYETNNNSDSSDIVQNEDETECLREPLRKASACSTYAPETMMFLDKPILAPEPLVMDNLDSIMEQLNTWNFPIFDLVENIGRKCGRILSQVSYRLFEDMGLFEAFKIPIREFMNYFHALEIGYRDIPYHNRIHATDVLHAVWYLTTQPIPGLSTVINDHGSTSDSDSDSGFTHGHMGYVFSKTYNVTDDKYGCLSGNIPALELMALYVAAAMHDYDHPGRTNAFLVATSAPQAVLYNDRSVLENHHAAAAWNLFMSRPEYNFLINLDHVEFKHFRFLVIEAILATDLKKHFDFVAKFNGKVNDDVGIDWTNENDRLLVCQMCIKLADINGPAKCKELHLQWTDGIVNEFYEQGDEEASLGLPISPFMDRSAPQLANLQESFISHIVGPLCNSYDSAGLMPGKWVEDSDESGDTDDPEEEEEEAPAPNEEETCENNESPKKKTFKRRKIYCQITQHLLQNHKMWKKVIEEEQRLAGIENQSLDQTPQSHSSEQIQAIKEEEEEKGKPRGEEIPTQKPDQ
For data set [14], the target named is Androgen receptor (Homo sapiens) (UniProt P10275). Description: ANDROGEN/H Eurofins SafetyScreen44 (BI). The conditions noted are these: Compound concentration 10.0 uM.
Data set [15] addresses GABA-A receptor; anion channel (Rattus norvegicus) (UniProt O09028+P15431+P18506+P18508+P19969+P20236+P23574+P23576+P28471+P28473+P30191+P62813+P63079+P63138+Q91ZM7+Q9ES14). Description: BZD/CENTR/R Eurofins SafetyScreen44 (BI). The conditions noted are these: Compound concentration 10.0 uM. It is filed as protein-complex assay.
Data set [16] addresses Glutamate NMDA receptor (Rattus norvegicus) (UniProt P35439+Q00959+Q00960+Q00961+Q62645+Q8VHN2+Q9R1M7). Description: NMDA/R Eurofins SafetyScreen44 (BI). It is filed as protein-complex assay. Conditions: Compound concentration 10.0 uM.
Data set [17] concerns the target 3',5'-cyclic-AMP phosphodiesterase 4D (Homo sapiens) (UniProt Q08499). Briefly: PDE4D2 Eurofins SafetyScreen44 (BI). Conditions: Compound concentration 10.0 uM.
In data set [18] the target is T2, Muscarinic acetylcholine receptor M2 (Homo sapiens) (UniProt P08172).
T2 sequence (whole entry): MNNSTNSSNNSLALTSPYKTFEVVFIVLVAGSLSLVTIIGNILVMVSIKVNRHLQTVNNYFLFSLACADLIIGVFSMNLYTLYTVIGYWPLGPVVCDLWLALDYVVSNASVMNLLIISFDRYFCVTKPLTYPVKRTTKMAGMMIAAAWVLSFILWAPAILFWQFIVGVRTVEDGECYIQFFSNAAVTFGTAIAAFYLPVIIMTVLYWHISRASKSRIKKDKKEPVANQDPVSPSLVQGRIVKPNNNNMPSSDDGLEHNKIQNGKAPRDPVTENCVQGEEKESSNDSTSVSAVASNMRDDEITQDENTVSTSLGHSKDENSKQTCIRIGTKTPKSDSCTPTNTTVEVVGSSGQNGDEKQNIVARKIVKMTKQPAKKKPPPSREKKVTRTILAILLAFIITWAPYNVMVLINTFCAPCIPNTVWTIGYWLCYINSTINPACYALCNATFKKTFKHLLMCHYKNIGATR
Description: M2/H Eurofins SafetyScreen44 (BI). The conditions noted are these: filed as antagonist, Compound concentration 10.0 uM.

For data set [19], the target named is D(2) dopamine receptor (Homo sapiens) (UniProt P14416). Briefly: D2SH_AGON Eurofins SafetyScreen44 (BI). Conditions: filed as agonist, Compound concentration 10.0 uM.
For data set [20], the target named is 5-hydroxytryptamine receptor 2B (Homo sapiens) (UniProt P41595). Description: 5HT2B/H AG Eurofins SafetyScreen44 (BI). The conditions noted are these: filed as agonist, Compound concentration 10.0 uM.
The target in data set [21] is T2, Muscarinic acetylcholine receptor M2 (Homo sapiens). Briefly: M2(H)AGON Eurofins SafetyScreen44 (BI). Conditions: filed as agonist, Compound concentration 10.0 uM.
In data set [22] the target is Sodium-dependent dopamine transporter (Homo sapiens) (UniProt Q01959). The conditions noted are these: Compound concentration 10.0 uM.

The source made the active and inactive calls. The calls are words filed in the database; no cut-off is given here. A value given as a limit tells only on which side of the number the result lay.

Chain of L-type calcium channel alpha-1C (dihydropyridine site) (P22002 whole entry): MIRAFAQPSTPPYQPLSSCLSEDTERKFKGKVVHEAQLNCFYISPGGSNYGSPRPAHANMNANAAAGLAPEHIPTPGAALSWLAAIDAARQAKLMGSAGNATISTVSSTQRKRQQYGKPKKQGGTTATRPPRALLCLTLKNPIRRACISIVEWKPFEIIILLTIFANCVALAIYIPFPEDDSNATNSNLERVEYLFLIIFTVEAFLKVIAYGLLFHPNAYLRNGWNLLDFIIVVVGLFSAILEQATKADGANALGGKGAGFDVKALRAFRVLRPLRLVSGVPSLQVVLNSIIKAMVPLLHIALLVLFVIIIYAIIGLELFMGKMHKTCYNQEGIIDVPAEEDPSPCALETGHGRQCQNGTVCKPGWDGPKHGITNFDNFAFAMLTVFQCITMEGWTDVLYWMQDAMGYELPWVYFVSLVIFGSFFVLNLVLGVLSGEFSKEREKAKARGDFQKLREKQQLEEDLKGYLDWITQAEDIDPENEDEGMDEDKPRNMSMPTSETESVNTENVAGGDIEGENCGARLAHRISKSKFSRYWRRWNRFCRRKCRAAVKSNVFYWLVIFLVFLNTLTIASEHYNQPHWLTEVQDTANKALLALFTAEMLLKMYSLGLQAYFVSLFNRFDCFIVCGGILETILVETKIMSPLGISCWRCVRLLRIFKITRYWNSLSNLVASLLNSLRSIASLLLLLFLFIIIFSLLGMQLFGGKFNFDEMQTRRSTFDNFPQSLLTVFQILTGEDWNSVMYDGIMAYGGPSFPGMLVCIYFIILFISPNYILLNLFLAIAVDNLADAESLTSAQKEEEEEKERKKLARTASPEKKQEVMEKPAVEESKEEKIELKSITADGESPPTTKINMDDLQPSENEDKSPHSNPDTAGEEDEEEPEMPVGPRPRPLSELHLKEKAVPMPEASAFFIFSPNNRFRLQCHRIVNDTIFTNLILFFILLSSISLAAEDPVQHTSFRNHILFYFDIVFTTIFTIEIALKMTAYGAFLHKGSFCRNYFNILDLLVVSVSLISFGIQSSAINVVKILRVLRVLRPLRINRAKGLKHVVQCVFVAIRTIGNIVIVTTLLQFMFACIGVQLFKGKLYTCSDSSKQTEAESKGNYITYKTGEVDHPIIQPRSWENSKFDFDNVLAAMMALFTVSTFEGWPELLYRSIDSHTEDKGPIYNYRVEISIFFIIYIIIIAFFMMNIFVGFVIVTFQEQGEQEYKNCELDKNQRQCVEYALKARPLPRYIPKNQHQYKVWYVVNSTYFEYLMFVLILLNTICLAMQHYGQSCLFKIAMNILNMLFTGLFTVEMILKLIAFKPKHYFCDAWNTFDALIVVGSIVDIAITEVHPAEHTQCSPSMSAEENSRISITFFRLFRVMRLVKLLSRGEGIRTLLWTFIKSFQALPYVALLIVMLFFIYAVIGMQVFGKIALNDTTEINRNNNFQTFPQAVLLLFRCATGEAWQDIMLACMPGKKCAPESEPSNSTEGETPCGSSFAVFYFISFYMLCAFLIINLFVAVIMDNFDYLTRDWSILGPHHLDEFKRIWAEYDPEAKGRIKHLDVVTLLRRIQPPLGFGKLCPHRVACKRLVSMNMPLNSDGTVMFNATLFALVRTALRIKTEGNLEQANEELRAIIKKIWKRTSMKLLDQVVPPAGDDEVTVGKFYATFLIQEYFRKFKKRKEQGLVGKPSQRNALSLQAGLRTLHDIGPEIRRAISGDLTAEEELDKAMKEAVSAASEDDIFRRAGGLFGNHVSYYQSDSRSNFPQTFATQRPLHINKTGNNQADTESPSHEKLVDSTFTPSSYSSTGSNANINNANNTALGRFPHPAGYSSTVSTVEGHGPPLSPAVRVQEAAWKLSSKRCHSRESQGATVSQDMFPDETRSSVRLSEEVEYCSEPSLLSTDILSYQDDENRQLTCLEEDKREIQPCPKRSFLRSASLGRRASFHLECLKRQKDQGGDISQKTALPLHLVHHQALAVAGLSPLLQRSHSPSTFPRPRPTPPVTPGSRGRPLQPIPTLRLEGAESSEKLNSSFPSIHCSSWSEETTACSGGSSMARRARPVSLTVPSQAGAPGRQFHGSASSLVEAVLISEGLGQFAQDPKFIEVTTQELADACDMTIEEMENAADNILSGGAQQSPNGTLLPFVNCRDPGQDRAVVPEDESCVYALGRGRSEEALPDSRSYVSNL
Chain of Beta-2 adrenergic receptor (Homo sapiens) (P07550 whole entry, looked up): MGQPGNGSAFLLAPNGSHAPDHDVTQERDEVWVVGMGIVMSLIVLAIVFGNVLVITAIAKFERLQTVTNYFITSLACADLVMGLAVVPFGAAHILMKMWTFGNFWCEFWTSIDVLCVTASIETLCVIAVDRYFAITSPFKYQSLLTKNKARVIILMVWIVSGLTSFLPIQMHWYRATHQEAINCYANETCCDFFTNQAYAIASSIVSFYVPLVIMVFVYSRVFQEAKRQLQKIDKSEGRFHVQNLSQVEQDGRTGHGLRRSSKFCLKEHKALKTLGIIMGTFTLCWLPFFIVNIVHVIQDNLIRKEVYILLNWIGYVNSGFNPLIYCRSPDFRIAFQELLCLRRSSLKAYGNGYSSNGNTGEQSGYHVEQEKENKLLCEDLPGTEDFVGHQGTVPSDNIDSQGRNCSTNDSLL

By IC50 is commonly meant the concentration needed to halve the response being measured. On to `CCn1c(CNC(=O)c2ncc(C)nc2N)[n+](CC)c2ccc(C(=O)N(C)CN(C)C)cc21`, for which the residual activity was 104% in data set [1]; 91% in data set [2]; 105% in data set [3]; 90% in [4]; 97% in data set [6]; 96% in data set [7]. For the same molecule, the residual activity in data set [10] is 76%; in data set [11], 104%; in data set [13], 87%; in [14], 99%; in data set [15] it was 96%; in [16], 100%. For the same molecule, the residual activity is 87% in data set [17], 41% in data set [18], 79% in data set [19] and 61% in data set [20]. Also, the activity at 10 µM was 103% (not active) in data set [5], 87% (not active) in data set [9], 81% (not active) on hERG (KCNH2) and 87% (not active) in data set [12]. Also, in data set [8], the IC50 is > 10 µM (not active).

A word on the inhibition: it is how much of the control response was suppressed. `CCn1c(CNC(=O)c2nc(Cl)cnc2N)[n+](CC)c2ccc(C(=O)N(C)CCN(C)C)cc21`: the residual activity in data set [1] was 94%; in [2] it was 105%; in [3], 110%; in data set [4], 83%; in data set [6], 115%; in [7] it was 119%. Also, the residual activity in data set [21] is 85.2%; in data set [10], 50%; in [11] it was 100%; in data set [13] it was 100%; in data set [14] it was 106%; in data set [15], 130%. In addition, the residual activity is 105% in [16]; 99% in data set [17]; 36% in data set [18]; 101% in [19]; 92% in [20]. Moreover, the activity at 10 µM in data set [5] is recorded as 99% (not active); in [9], 89% (not active); on hERG (KCNH2), 91% (not active); in data set [12] it was 66% (not active). Also, the IC50 in data set [8] is 0.017 µM (active). Besides, the inhibition in [22] is 12.4%.

These data come from ChEMBL document CHEMBL5303762, “Data for DCP probe BI-8668” (2023).
